Data as given in patent US12491188B2, “Small molecule PARG inhibitors and methods of use thereof” (Board of Regents, The University of Texas System, priority 2019, dated 2025).

Legend:
human PARG = human PARG (Homo sapiens (Human), UniProt Q86W56); test: Gel-based PARG activity assay; type: biochemical
Experimental: FIGS. 9a & 9b show structure-activity relationships (SAR) of compounds from five main chemotypes. (FIG. 9a) A total of 34 representative HTS hits and commercially available analogues from each chemotype (FIG. 7 and FIG. 29) were analyzed using the gel-based PARG activity assay. This gel-based assay directly monitors the change of PARylation status of PARP1 as a substrate of PARG. […] The reaction was quenched after a 30 min incubation at room temperature by adding SDS-PAGE sample buffer. PARylated PARP1C runs as a smear on SDS-PAGE that is reduced to a single band by PARG treatment. […] (FIG. 9b) Quantification of the dose-response PARG inhibition by JA2-3 using the gel-based PARG activity assay. hPARG (1 nM) was preincubated with increasing concentrations (0.032-1 μM) of JA2-3 for 1 hr at room temperature before PARylated PARP1C (500 nM) was added. The reaction was quenched after a 30 min incubation at room temperature. PARylated PARP1C migrates slower than unmodified PARP1C and was quantified using ImageJ. To determine the IC50 value, the dose-response data were plotted as a function of JA2-3 concentration and fitted to the four-parameter logistic equation using SigmaPlot. The rate of the PARG-dependent signal loss in the TR-FRET PAR turnover assay is not equivalent to the steady-state rate of PAR turnover, because the TR-FRET assay can't detect signal loss until the length of PAR chains become shorter than 7 ADP-ribose units. Therefore, the gel-based PARG activity assay to accurately determine the IC50 values throughout the present disclosure.
Gel-based PARG activity assay. PARP1C (2 μM) is enzymatically auto-modified in a reaction containing the PARP1 DBD (2 μM), a 24 mer nicked DNA oligo (2 μM), and NAD+(300 μM) for 1 hr at 37° C., as described previously (Kim et al., 2012). Human PARG^389-976 (1 nM) was pre-incubated with compounds for 1 hr at room temperature. The reaction was initiated by addition of PARylated PARP1 (final concentration of 500 nM) and quenched after 30 min incubation at room temperature by adding SDS-PAGE sample buffer. The gel was visualized by sypro-ruby staining (Kim et al., 2012) and the retained PARylated PARP1C species were quantified using ImageJ (Schneider et al., 2012).
PARylated PARP1C that migrates slower than unmodified PARP1C was quantified. […] The IC50 values were determined by fitting the dose-response data for each compound to a four-parameter logistic equation using SigmaPlot (Systat Software Inc.).
To test specificity of JA2131, human PARG^389-976 (1 nM) was pre-incubated with JA2131 (5, 10, and 20 μM) in the presence and absence of 0.1% Triton-X 100 or 0.1 mg/ml BSA for 1 hr at room temperature. The reaction was initiated, quenched, visualized, and quantified as described above.

[1] = system: PC3, MDA-MB-231 and MCF-7 cell lines; test: Clonogenic cell-survival assay; type: cell-based, human; details: 10 μM, 2 hours, 3 Gy IR, 2-3 weeks
Experimental: FIGS. 14a-c show selective inhibition of PARG by xanthine derivative JA2131. (FIG. 14a) PARG knockdown MDA-MB-231 cells were treated with 5 μM JA2131 or PDD for two hours, lysed and total lysates were immunoblotted for anti-PAR (upper panel) followed by anti-PARG (upper middle), anti-PARP1 (lower middle) and anti-actin (bottom). (FIG. 14b) Clonogenic assay radiation dose determination for MDA-MB-231, MCF-7 and PC3 cells. 500 cells were exposed to indicated dose of radiation and colonies were allowed to form for each cell-lines. The surviving colonies from each group were counted and normalized against non-irradiated. The results of three independent experiments are shown here. Error bars=SEM. (FIG. 14c) Clonogenic survival assays of PC3, MDA MB231 and MCF-7 cells treated with PARGi. 500 cells were treated with either DMSO or 10 μM JA2131 for 2 hours, irradiated 3Gy ionizing radiation and grown for approximately 2-3 weeks, then colonies were fixed methanol and stained with crystal violet. Cells were analysed as above. The results of three independent experiments are shown here. Error bars=SEM.
Cell culture. […] Cells were fixed with methanol (100%), stained with crystal violet and analyzed using a GelCount instrument (Oxford Optronix Ltd). […]

Sequence of human PARG (Q86W56 389-976): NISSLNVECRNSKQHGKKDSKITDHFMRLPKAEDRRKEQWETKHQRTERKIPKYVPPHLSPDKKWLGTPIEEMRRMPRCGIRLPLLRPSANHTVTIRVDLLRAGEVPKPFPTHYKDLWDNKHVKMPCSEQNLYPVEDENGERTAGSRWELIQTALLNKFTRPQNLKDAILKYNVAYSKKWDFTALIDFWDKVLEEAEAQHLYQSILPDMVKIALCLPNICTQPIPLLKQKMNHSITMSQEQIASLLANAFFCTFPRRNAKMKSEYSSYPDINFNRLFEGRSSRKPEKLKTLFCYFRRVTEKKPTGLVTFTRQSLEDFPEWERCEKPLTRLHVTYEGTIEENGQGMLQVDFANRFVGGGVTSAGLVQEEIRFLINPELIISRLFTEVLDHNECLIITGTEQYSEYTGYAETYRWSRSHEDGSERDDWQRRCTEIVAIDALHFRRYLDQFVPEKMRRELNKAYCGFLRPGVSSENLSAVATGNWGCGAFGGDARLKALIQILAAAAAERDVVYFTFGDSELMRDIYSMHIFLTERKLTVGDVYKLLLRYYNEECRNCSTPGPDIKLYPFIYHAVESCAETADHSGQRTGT

SMILES: O=C1C(Cl)=C(Cl)C(Cl)(Cl)C(Cl)=C1Cl [JA2131]
- effect of detergent or non-specific protein on PARG inhibitory potency (human PARG; 0.1% Triton-X 100 or 0.1 mg/ml BSA, JA2131 5, 10, 20 μM): Neither the addition of Triton-X 100 nor BSA significantly altered the inhibitory potency
- IC50 of PARG inhibition (human PARG; hPARG 1 nM, PARylated PARP1C 500 nM): sub-micromolar
- IC50 (human PARG; hPARG 1 nM, PARylated PARP1C 500 nM, read-out: IC50 of PARG inhibition): 400 nM
- increase in potency of JA2131 (6′-thiocarbonyl) in comparison to JA2120 (6′-carbonyl) (human PARG; ratio of IC50 values): more than 50 fold
- colony formation [1]: inhibits colony formation in all three cell lines
